# Measurements: patent publication US20230172874A1, “USE OF CANNABIDIOL FOR THE TREATMENT OF INSOMNIA ASSOCIATED TO PAIN” (priority 2021, published 2023)
# Entries after “also recorded” stand apart in the source; their conditions may differ.
# Test system: neuropathic rats
# Assay: EEG power spectra (delta, theta, sigma bands) during NREM and REM sleep
# Assay type: in vivo, male Wistar rats
# Experimental: EEG and EMG recording. Six days after surgery (16 days post-SNI), mechanical allodynia was assessed via von Frey test, and EEG/EMG was recorded for a period of 6 h (from 6 AM to 12 PM). The treatments (described below) were performed at 6:00 A.M., right after the recording had started. […] Consecutive 10 s epochs were subjected to a fast Fourier transform (FFT), and EEG power spectra density was computed in the frequency range of 0-64 Hz^13.
# To determine the variations in power spectra induced by the pharmacological treatment of CBD and antagonists, the power densities were summed up over the frequency band of 0-25 Hz (total power). The data were then standardized by expressing all power spectral densities at the different 0.5 Hz bin frequency ranges (delta, theta, and sigma) as a percentage relative to the total power of the same epoch^16. Frequency ranges were 0-3.5Hz for delta, 4-8.5Hz for theta, and 11-14 Hz for sigma bands. The sum of power densities over a frequency band following treatments were expressed as the percentage difference from that in or naïve+veh or NP+vehicle group in statistical analysis. In the experiments with WAY 100635 the NP+CBD was compared with NP+vehicle, NP+WAY, NP+WAY+CBD.
# To assess whether CBD (20 mg/kg) might affect the microarchitecture during the sleep, the intensity Delta (0.5-4 Hz), Theta ([…]) and Sigma (10-15 Hz) waves were measured during 6 hours of light phase in the 3 groups of rats (Naïve, SNI+VEH and SNI+CBD 20mg/kg). Data were converted as a percentage of variation vs. naive animals and One-way ANOVA was performed on the power of delta, theta and sigma waves during NREM and REN sleep.
# To assess whether the 5-HT1A selective antagonist WAY 100635 (2 mg/kg) might reverse the effect of CBD (20 mg/kg) in the enhancement of power density (Delta, Theta, and Sigma waves) during sleep, the power spectra were measured for 6 hours in four groups of rats. The first group were NP rats treated with CBD vehicle (n=8), the second group were NP rats treated with WAY 100635 alone at 2 mg/kg (n=6), the third group were NP rats treated with WAY 100635 (2 mg/kg)+CBD (20 mg/kg; n=6), and the fourth group were NP treated with CBD at 20 mg/kg (n=8). Data were converted as a percentage of variation vs NP animals treated with vehicle.
smiles,measurement,setting,value
"C=C(C)[C@@H]1CCC(C)=C[C@H]1c1c(O)cc(CCCCC)cc1O [CBD, 2-[(1R,6R)-3-methyl-6-prop-1-en-2-ylcyclohex-2-en-1-yl]-5-pentylbenzene-1,3-diol]","power of Sigma waves during REM sleep, relative to NP rats treated with vehicle","6 h, CBD 20 mg/kg",no statistically significant differences between groups; also recorded: no differences were found
same,"power of Theta waves during REM sleep, relative to NP animals treated with vehicle","6 h, CBD 20 mg/kg",no statistically significant differences between groups
same,"power of theta waves during NREM sleep, relative to NP animals treated with vehicle","6 h, CBD 20 mg/kg i.p.",increases the intensity of the Theta waves; also recorded: increase in the theta power
same,"Sigma waves during NREM sleep, relative to NP rats treated with vehicle","6 h, CBD 20 mg/kg, WAY 100635 2 mg/kg",no significant main effects; also recorded: did not detect differences
same,"power of Delta waves during NREM sleep, relative to NP rats treated with vehicle","6 h light phase, CBD 20 mg/kg i.p.",increase in the intensity of the power of Delta waves
same,"power of Delta waves during REM sleep, between groups (ANOVA)","NP rats, 6 h, CBD 20 mg/kg, WAY 100635 2 mg/kg",no statistically significant differences between groups
